Consider 17 compounds from patent publication US8119640B2, “Hedgehog pathway antagonists methods of use” (The Board of Trustees of the Leland Stanford Junior …, priority 2008, dated 2012).

“Also recorded” adds a separate entry of the source. Read-outs that look alike come from different tables or passages of the source. Where only a bound is given, the exact number is not on record here.

One data set deals with T1, Gli1 (Mus musculus, UniProt P47806).
T1 construct: expressed in transfected cells; host or cells: NIH-3T3
T1 sequence (P47806 1-1111): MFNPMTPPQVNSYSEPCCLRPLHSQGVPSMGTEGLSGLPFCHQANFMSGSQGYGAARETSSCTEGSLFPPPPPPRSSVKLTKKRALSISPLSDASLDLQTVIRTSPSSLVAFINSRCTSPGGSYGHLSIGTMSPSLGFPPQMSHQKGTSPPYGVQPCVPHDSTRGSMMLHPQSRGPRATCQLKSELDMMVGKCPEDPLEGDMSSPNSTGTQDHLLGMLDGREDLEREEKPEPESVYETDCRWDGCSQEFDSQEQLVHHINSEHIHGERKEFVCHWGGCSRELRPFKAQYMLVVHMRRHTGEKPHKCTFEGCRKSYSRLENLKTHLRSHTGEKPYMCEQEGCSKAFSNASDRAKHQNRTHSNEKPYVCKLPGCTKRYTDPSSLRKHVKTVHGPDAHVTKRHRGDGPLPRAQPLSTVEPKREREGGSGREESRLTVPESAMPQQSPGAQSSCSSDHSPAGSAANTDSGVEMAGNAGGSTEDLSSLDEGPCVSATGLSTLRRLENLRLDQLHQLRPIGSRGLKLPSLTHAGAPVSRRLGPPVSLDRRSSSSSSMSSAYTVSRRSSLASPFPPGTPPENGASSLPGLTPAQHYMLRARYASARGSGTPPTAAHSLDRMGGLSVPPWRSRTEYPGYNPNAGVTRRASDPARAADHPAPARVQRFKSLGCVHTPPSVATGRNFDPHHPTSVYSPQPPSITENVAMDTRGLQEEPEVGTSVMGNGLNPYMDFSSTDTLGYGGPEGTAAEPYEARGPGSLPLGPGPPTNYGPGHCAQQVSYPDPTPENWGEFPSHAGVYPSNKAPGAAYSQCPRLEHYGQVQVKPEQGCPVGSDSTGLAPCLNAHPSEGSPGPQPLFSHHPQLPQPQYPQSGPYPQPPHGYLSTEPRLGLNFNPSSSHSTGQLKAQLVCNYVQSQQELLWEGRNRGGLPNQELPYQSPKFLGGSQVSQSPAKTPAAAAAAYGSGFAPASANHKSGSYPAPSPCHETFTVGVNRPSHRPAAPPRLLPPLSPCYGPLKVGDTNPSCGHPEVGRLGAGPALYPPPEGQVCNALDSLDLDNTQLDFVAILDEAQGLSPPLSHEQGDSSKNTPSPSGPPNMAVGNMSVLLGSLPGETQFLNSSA
The data set can be described thus: Hh pathway activation mediated by overexpression of Gli1. Type of data set: cell-based. The following applies: for Inhibition of Hh pathway activity induced by Gli1 overexpression: NIH-3T3 cells, Gli-dependent firefly luciferase; for IC50: NIH-3T3 cells overexpressing Gli1, read-out: IC50 (uM) Gli1 Transfected or Infection. As to the method:
Hh pathway activation mediated by the overexpression of Gli, Gli2, Gli2αPKA, or Gli2αGSK. […] The cells were co-transfected the following day with 220 ng/well pcDNA-derived Gli1, Gli2, or Gli2 phosphosite mutant expression vectors and 80 ng/well of a 1:15 mixture of phRLTK (Promega) and 8XGIiBS-FL. After transfection, cells were grown to confluence (approximately 48 h). The cell were then incubated for an additional 28-32 h in DMEM containing 0.5% CS, 100 U/mL penicillin, 0.1 mg/mL streptomycin, and either DMSO, 50 μM forskolin, 50 μM LY294002, or various concentrations of the HPIs. Firefly and Renilla luciferase activities were measured using a dual luciferase kit and a Veritas microplate luminometer.

The next data set deals with Smo (Mus musculus, UniProt P56726). The data set can be described thus: BODIPY-cyclopamine/Smo binding assay. Also noted: expressed in transfected cells; host or cells: HEK-293T; species or system murine. The following applies: 5 nM BODIPY-cyclopamine, Smo-overexpressing HEK-293T cells, HPIs 20 μM. Here is the method:
BODIPY-cyclopamine/Smo binding assay. Smo-binding assays were conducted with BODIPY-cyclopamine and Smooverexpressing and HEK-293T cells as previously described, using a CMV-promoter based SV40 origin-containing expression construct for Smo-Myc3 (murine Smo containing three consecutive Myc epitopes at the C-terminus). […] The cells were cultured until they reached 55 to 65% confluency (14-18 h), after which they were transfected with the Smo-Myc3 expression construct and FuGENE (Roche) according to the manufacturer's protocols. 24 h after transfection, the cells were washed with phosphate-buffered saline (PBS) and cultured in DMEM containing 0.5% FBS, 5 nM BODIPY-cyclopamine, and individual HPIs (20 μM). After 30 min, 10 μM Hoescht 33342 was added to each well, and the HPIs were incubated with the cells for an additional 60 min. The cells were then washed two times with PBS buffer, mounted in Prolong Gold (Invitrogen) and immediately imaged using a DM4500B compound microscope (Leica).

The subject of the next data set is Hh pathway. The data set can be described thus: Shh-LIGHT2 assay for Hh pathway activation (Gli-dependent firefly luciferase). The class given is cell-based. As to the method:
Shh-LIGHT2 assay for Hh pathway activation and library screening conditions. h-N-conditioned medium was prepared as previously described. […] For 96-well plate assays, Shh-LIGHT2 cells were seeded into each plate (10,000 cells/well) and cultured to confluency. The Shh-LIGHT2 cells were then grown in DMEM containing 0.5% CS, 100 U/mL penicillin, 0.1 mg/mL streptomycin, either 5% Shh-N-conditioned medium or 500 nM SAG, and various concentrations of the HPIs. After the cells were cultured for another 30 h, the resulting firefly and Renilla luciferase activities were measured using a Dual Luciferase Reporter kit (Promega) and a Veritas microplate luminometer (Turner Biosystems).
When the cells reached >90% confluency, they were removed by trypsinization and diluted to a final volume of 50 mL medium. This cell suspension was then plated into clear-bottom, white-walled 384-well plates using a Titertek Multidrop dispenser (50 μL/well) and the cells were cultured until they reached confluency (3-4 days). […] The plates were then placed into an automated Staccato system (Caliper Life Sciences), which includes an automated CO2 incubator. An automated protocol was then run, in 3 which a Multidrop dispenser added 10 μL of a SAG solution in 0.5% CS medium (final SAG concentration of 500 nM) to columns 1-22 and 100 nL of each compound solution was added to the plates using a V&P Scientific pin tool, resulting in a final compound screening concentration of 10 μM. The SAG-free wells were used as negative controls. After 28-32 h, the assay medium was manually removed and the plates were frozen. To assay the firefly luciferase activities, the plates were thawed and placed into a Twister II stacker in the Staccato system. Bright-Glo luciferase substrate (Promega) was added by the Multidrop dispenser and the plates were analyzed on an Analyst GT microplate reader (2 min in the dark, 0.2 sec integration/well; Molecular Devices). Hits were defined as compounds that reduce the firefly luciferase signal by at least 50% compared to inhibitor-free controls. Primary hits were then re-tested in duplicate in an eight-point, 1:1 serially diluted doseresponse curve with a starting concentration of 20 μM. In these experiments, the median inhibitory concentration (IC50) for both firefly and Renilla luciferase were determined using a Dual-Glo kit (Promega).

Setting [1] is: SAG-stimulated Shh-LIGHT2 cells, firefly luciferase, read-out: median inhibitory concentrations (IC50s) in the screen.
Setting [2] is: Shh Light2, stimulated with 500 nM SAG, read-out: IC50 (uM) SAG/Shh-LIGHT2 cells.
Setting [3] is: Shh Light2, stimulated with Shh-N-conditioned medium, read-out: IC50 (uM) Shh/Shh-LIGHT2 cells.

Smo, sequence (P56726 33-793): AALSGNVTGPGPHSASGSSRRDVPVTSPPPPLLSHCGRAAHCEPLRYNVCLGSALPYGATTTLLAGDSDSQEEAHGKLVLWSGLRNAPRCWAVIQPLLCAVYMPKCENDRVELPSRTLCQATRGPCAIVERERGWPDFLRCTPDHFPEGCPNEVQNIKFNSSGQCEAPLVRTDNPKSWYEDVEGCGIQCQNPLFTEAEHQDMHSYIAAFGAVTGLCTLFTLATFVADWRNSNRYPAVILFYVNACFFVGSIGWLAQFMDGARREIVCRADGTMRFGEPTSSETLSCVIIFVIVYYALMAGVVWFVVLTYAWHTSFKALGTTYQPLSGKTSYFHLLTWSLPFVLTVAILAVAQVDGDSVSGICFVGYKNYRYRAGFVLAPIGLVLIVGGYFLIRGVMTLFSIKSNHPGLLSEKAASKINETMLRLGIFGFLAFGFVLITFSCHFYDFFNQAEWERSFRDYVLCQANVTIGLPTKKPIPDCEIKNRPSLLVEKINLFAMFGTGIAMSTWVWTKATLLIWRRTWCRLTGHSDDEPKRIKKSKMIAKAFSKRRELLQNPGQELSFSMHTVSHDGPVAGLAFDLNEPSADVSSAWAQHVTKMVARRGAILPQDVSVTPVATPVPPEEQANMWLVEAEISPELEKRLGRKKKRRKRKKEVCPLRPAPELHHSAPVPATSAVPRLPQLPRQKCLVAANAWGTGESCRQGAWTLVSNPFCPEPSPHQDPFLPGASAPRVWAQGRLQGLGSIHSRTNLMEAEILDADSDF

Consider `COCCOC(=O)C1=C(C)NC2=C(C(=O)CC(c3ccccc3OC)C2)C1c1cccc(O)c1` (mixture of isomers) [Compound 8, 4-(3-Hydroxy-phenyl)-7-(2-methoxy-phenyl)-2-methyl-5-oxo-1,4,5,6,7,8-hexahydro-quinoline-3-carboxylic acid 2-methoxy-ethyl ester], for which, at Gli1 (listed as HPI-1), the “Inhibition of Hh pathway activity induced by Gli1 overexpression” value (shortened to “Inhibition”) was “inhibit Gli-induced firefly luciferase expression in a dose-dependent manner; also recorded: inhibits”. Further, the BODIPY-cyclopamine competition entry on Smo was “No”. The IC50 was less than 10 µM in the data set on Hh pathway (setting [1]), 1.5 µM with Hh pathway (setting [2]) and 1.3 µM in the data set with Hh pathway (setting [3]).
For the compound `N#Cc1cc2c(nc1SCC(=O)Nc1nc3ccccc3s1)CCC2` [Compound 1], the figures for the IC50 on Gli1, in the data set with Hh pathway (setting [2]) and with Hh pathway (setting [3]) were 1 µM, 0.21 µM and 0.25 µM, respectively. The BODIPY-cyclopamine competition result on Smo was “No”.
The corresponding values for `CCCCNC(=N)C(C)c1ccc(CC(C)C)cc1` (centres unmarked) [Compound 2] are more than 30 µM, 2.2 µM, 1.6 µM and “No”.
For `Cc1cc(/C=c2\sc3nc4ccccc4n3c2=O)c(C)n1C(C)C` [Compound 3] the same measures were 1 µM, 0.55 µM, 0.5 µM and “No”.
For `O=C(Nc1cccc2ccccc12)OC[C@@H]1CCCN2CCCC[C@H]12` [Compound 4] the same measures were more than 30 µM, 4 µM, 1.8 µM and “No”.
Turning to `CCC(C)NS(=O)(=O)c1ccc(Cc2ccc(S(=O)(=O)NC(C)CC)cc2)cc1` (centres unmarked) [Compound 5], the IC50 at Gli1 amounted to 7 µM; in the data set with Hh pathway (setting [2]), 0.8 µM; with Hh pathway (setting [3]) it was 1 µM. Moreover, at Smo, the BODIPY-cyclopamine competition entry is listed as “No”.
For `CCOC(=O)c1cc2c(=O)n3ccccc3nc2n(C(C)C)c1=NC(=O)c1cc(OC)cc(OC)c1` [Compound 6] the same measures were 1.5 µM, 1 µM, 1 µM and “No”.
Consider `CCN1CCCC1CNC(=O)C1CCN(c2nc3c(C)cc(C)cc3s2)CC1` (centres unmarked) [Compound 7], for which, at Gli1, the “Toxicity noted in Gli1 Transfected or Infection column” value is recorded as “(Toxic at 30)”. In addition, the IC50 at Gli1 was more than 10 µM; in the data set with Hh pathway (setting [2]), 1 µM; in the data set on Hh pathway (setting [3]) it was 1.6 µM. The BODIPY-cyclopamine competition entry on Smo is given as “No”.
Consider `CCOC(=O)c1cn(-c2ccccc2)nc1-c1ccc(OC)c(OC)c1` [Compound 9], for which the IC50 is more than 30 µM at Gli1, 5 µM in the data set with Hh pathway (setting [2]) and 5 µM in the data set on Hh pathway (setting [3]). The BODIPY-cyclopamine competition entry on Smo is given as “No”.
Take `O=S(=O)(Nc1cc(Cl)c(Cl)cc1Cl)c1ccc(F)cc1` [Compound 10]: the IC50 is 2 µM on Gli1, 2.2 µM in the data set with Hh pathway (setting [2]) and 2.2 µM with Hh pathway (setting [3]). The BODIPY-cyclopamine competition result at Smo is “No”.
As for `OCCNc1nc(N2CCN(c3ccccc3)CC2)nc2ccccc12` [Compound 11], the IC50 on Gli1 was more than 30 µM; in the data set on Hh pathway (setting [1]), less than 10 µM; with Hh pathway (setting [2]) it was 1.5 µM; in the data set on Hh pathway (setting [3]), 2 µM. Also, the “Inhibition” value on Gli1 (listed as HPI-3) was “no significant activity; also recorded: inactive”. In addition, the BODIPY-cyclopamine competition entry at Smo was “No”.
With `CC(C)(C)N(CCNS(=O)(=O)c1ccc(-c2cc(C(F)(F)F)no2)s1)Cc1ccco1` [Compound 12], the IC50 on Gli1 is 4 µM; with Hh pathway (setting [2]), 2 µM; in the data set on Hh pathway (setting [3]) it was 2 µM. The BODIPY-cyclopamine competition entry at Smo was “No”.
On to `CN1CCN(C2Cc3ccccc3Sc3ccccc32)CC1` (centres unmarked) [Compound 13], for which the IC50 on Gli1 is more than 30 µM; in the data set with Hh pathway (setting [2]), 1.6 µM; in the data set with Hh pathway (setting [3]), 1.4 µM. Moreover, the BODIPY-cyclopamine competition entry at Smo is given as “No”.
Regarding `CCOc1ccc2ncc(C(=O)c3ccc(C)cc3)c(N3CCCC3)c2c1` [Compound 14], the IC50 at Gli1 was more than 30 µM; in the data set with Hh pathway (Shh Light2, read-out: IC50 (uM) SAG/Shh-LIGHT2 cells) it was 5.5 µM; in the data set with Hh pathway (Shh Light2, read-out: IC50 (uM) Shh/Shh-LIGHT2 cells), 5.5 µM. In addition, at Smo, the BODIPY-cyclopamine competition result is on record as “No”.
With `O=C(Nc1nnc(S(=O)(=O)N2CCCCC2)s1)c1cccc(Br)c1` [Compound 15], the IC50 on Gli1 turned out to be 12 µM; in the data set with Hh pathway (setting [2]), 5 µM; in the data set with Hh pathway (setting [3]), 4.5 µM. The BODIPY-cyclopamine competition result at Smo was “No”.
The corresponding values for `CCOc1ccc(CCNc2cnnc3c(Cl)cccc23)cc1OCC` [Compound 16] are more than 30 µM, 8 µM, 4.5 µM and “No”.
Consider `COc1ccc(OC)c2c1cc1n2CC(C)(C(=O)NC2CCCCCCC2)N(CCN(C)C)C1=O` (centres unmarked) [Compound 17], for which the IC50 was more than 30 µM on Gli1, less than 10 µM in the data set on Hh pathway (setting [1]), 2 µM with Hh pathway (setting [2]) and 2 µM in the data set on Hh pathway (setting [3]). Besides, the “Inhibition” value at Gli1 is listed as “entirely due to a moderate increase in Renilla luciferase activity”. The BODIPY-cyclopamine competition entry at Smo is listed as “No”.
